Experimental findings from US7786141B2 (Vertex Pharmaceuticals Incorporated, priority 2004, dated 2010) are described below.

Molecules are shown by their SMILES. Where two headings read alike, the source gives them in different places. Where only a bound is given, the exact number is not on record here.

One assay has as its target T1, M4 muscarinic receptor (Homo sapiens, UniProt P08173).
T1 construct: expressed in transfected cells; host or cells: CHO (M4-CHO)
T1 sequence (P08173 1-479): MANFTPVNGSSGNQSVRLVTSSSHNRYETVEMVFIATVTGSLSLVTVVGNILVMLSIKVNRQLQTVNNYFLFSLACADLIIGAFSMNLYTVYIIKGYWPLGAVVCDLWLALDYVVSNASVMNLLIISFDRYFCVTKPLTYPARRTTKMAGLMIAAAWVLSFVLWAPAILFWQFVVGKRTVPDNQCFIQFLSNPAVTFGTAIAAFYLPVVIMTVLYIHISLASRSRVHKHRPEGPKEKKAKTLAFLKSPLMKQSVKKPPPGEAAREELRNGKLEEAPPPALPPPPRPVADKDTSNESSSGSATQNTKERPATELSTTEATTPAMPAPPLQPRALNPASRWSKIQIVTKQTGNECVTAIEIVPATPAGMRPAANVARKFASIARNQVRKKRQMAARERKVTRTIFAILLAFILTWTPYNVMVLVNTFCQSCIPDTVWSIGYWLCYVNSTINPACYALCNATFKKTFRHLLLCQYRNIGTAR
The experiment in a line: Functional mobilization of intracellular calcium (FLIPR) in M4-CHO cells. It counts as cell-based. The gist of the method: (§1)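 Two modes: direct compound addition for agonism, or 15 min compound pre-incubation (or co-application) before carbachol at EC80 for inhibition. Calcium signal from Fluo-3 AM or Calcium 3 dye in CHO cells, 1 mM probenecid, pH 7.4, read 60 sec at 488/540 nm; DMSO 0.5% final.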

The next assay has as its target T2, M1 muscarinic receptor (Homo sapiens, UniProt P11229).
T2 construct: expressed in transfected cells; host or cells: CHO (M1-CHO)
T2 sequence (P11229 1-460): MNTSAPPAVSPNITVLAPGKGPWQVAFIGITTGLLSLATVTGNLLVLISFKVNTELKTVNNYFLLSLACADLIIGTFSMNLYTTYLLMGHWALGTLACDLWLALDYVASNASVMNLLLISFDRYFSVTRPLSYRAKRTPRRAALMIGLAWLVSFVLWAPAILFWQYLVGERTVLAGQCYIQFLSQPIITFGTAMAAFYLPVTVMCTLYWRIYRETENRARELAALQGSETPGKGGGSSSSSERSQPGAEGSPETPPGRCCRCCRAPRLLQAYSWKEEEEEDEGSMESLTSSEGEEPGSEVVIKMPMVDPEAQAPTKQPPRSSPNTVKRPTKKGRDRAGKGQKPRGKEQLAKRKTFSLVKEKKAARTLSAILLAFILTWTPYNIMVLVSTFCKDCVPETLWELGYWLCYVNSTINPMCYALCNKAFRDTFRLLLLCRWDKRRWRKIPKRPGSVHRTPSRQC
In words: Functional mobilization of intracellular calcium (FLIPR) in M1-CHO cells. It is filed as cell-based. The essentials:
as §1

Where [1] appears, read: M4 receptor, calcium mobilization.
The mark [2] stands for this setting: M4 receptor, calcium mobilization, read-out: M4 Efficacy.
[3] abbreviates: M1 receptor, calcium mobilization.
Setting [4] is: M1 receptor, calcium mobilization, read-out: M1 Efficacy.
The mark [5] stands for this setting: Table 4, 100% efficacy is the maximum response obtained with the Carbachol control.
Setting [6] is: Table 4, modulating M4 receptor.
[7] abbreviates: Table 4, modulating M1 receptor.
[8] abbreviates: Table 4, M4 receptor, calcium mobilization (FLIPR).
Setting [9] is: Table 4, M1 receptor, calcium mobilization (FLIPR).

Consider `CC(=O)N1CC2(CCN(CC3CCCCC3)CC2)c2cc(F)ccc21` [compound 393], for which the EC50 was more than 1000 nM at M4 muscarinic receptor (M4-CHO cells, calcium mobilization (FLIPR)) and less than 100 nM on M1 muscarinic receptor (M1-CHO cells, calcium mobilization (FLIPR)). For the same compound, the Emax was less than 65% at M4 muscarinic receptor (M4-CHO cells, calcium mobilization (FLIPR), read-out: M4 Efficacy) and 65 to 85% at M1 muscarinic receptor (M1-CHO cells, calcium mobilization (FLIPR), read-out: M1 Efficacy).

In the case of `CCOC(=O)N1CCC(N2CCC3(CC2)CN(C(C)=O)c2ccc(-c4cccc(F)c4)cc23)CC1` [compound 84], the “M4 Activity” value on M4 muscarinic receptor (setting [1]) is “xx (activity was measured to be between 0.1 μM and 1.0 μM)”. Moreover, the Emax at M4 muscarinic receptor (setting [2]) and at M1 muscarinic receptor (setting [4]) was 65 to 85% in each case. Moreover, at M1 muscarinic receptor (setting [3]), the “M1 Activity” value is listed as “xxx (activity was measured to be less than 0.1 μM)”.

As to `O=C(N[C@H]1CCC2(CCN(C3CC4CCC(C4)C3)CC2)c2ccccc21)C1CC1` (stereo partly drawn) [compound 744], the Emax at M4 muscarinic receptor (setting [5]) and on M1 muscarinic receptor (setting [5]) was 25 to 100% in each case. Moreover, on M4 muscarinic receptor (setting [6]), the “M4 Activity” value is on record as “xxx (activity was measured to be less than 2.0 μM)”. At M1 muscarinic receptor (setting [7]), the “M1 Activity” value was “xxx (activity was measured to be less than 2.0 μM)”.

With `CCC#CCOC(=O)N1CCC(N2CCC3(CC2)CN(C(=O)N(C)C)c2ccc(F)cc23)CC1` [compound 694], the Emax at M4 muscarinic receptor (setting [5]) and on M1 muscarinic receptor (setting [5]) was 25 to 100% each time. For the same compound, at M4 muscarinic receptor (setting [6]), the “M4 Activity” value is reported as “xxx (activity was measured to be less than 2.0 μM)”. Moreover, at M1 muscarinic receptor (setting [7]), the “M1 Activity” value was “xxx (activity was measured to be less than 2.0 μM)”.

`CCOC(=O)N1CCC(N2CCC3(CC2)CN(C(C)=O)c2c(-c4ccccc4OC)cccc23)CC1` [compound 799]: the Emax at M4 muscarinic receptor (setting [5]) and at M1 muscarinic receptor (setting [5]) was less than 25% in each case. The “M4 Activity” value on M4 muscarinic receptor (setting [6]) is on record as “x (activity was measured to be greater than 5.0 μM)”. Besides, the “M1 Activity” value on M1 muscarinic receptor (setting [7]) is reported as “x (activity was measured to be greater than 5.0 μM)”.

Take `COC(=O)N1CCC(CN2CCC3(CC2)CN(C(C)=O)c2ccc(F)cc23)CC1` [compound 129]: the “M4 Activity” value at M4 muscarinic receptor (setting [1]) is on record as “x (activity was measured to be greater than 1.0 μM)”. Besides, the figures for the Emax at M4 muscarinic receptor (setting [2]) and at M1 muscarinic receptor (setting [4]) were less than 65% and 65 to 85%, respectively. In addition, on M1 muscarinic receptor (setting [3]), the “M1 Activity” value is recorded as “xxx (activity was measured to be less than 0.1 μM)”.

Take `CC(=O)CN1CC2(CCN(C3CCCCCC3)CC2)c2cc(F)ccc21` [compound 1009]: the Emax on M4 muscarinic receptor (setting [5]) and at M1 muscarinic receptor (setting [5]) was 25 to 100% in each case. On M4 muscarinic receptor (setting [8]), the “M4 Activity” value is listed as “xxx (activity was measured to be less than 2.0 μM)”. Besides, the “M1 Activity” value on M1 muscarinic receptor (setting [9]) is reported as “xxx (activity was measured to be less than 2.0 μM)”.

As to `CC(=O)N(C)[C@H]1CC2(CCN(C[C@H]3C[C@H]4CC[C@H]3C4)CC2)c2ccccc21` [compound 190], at M4 muscarinic receptor (setting [1]), the “M4 Activity” value is given as “x (activity was measured to be greater than 1.0 μM)”. The figures for the Emax at M4 muscarinic receptor (setting [2]) and at M1 muscarinic receptor (setting [4]) were 65 to 85% and more than 85%, respectively. Also, the “M1 Activity” value on M1 muscarinic receptor (setting [3]) is “x (activity was measured to be greater than 1.0 μM)”.

As for `CC#CCOC(=O)N1CC[C@@H](CN2CCC3(CC2)CN(C(C)=O)c2cccc(C)c23)C1` [compound 929], the Emax on M4 muscarinic receptor (setting [5]) and on M1 muscarinic receptor (setting [5]) was 25 to 100% in each case. In addition, the “M4 Activity” value on M4 muscarinic receptor (setting [8]) is on record as “xxx (activity was measured to be less than 2.0 μM)”. Further, the “M1 Activity” value on M1 muscarinic receptor (setting [9]) is on record as “xxx (activity was measured to be less than 2.0 μM)”.

With `CC(=O)N1CC2(CCN(C3CC4CCC(C3)N4C(=O)O[C@H]3CCOC3)CC2)c2ccccc21` (stereo partly drawn) [compound 623], the Emax at M4 muscarinic receptor (setting [5]) and at M1 muscarinic receptor (setting [5]) was 25 to 100% in each case. In addition, the “M4 Activity” value at M4 muscarinic receptor (setting [6]) is on record as “xxx (activity was measured to be less than 2.0 μM)”. In addition, the “M1 Activity” value on M1 muscarinic receptor (setting [7]) is “xxx (activity was measured to be less than 2.0 μM)”.

For `CC(C)OC(=O)N1CCCC(N2CCC3(CC2)CN(C(=O)N(C)C)c2ccc(F)cc23)CC1` (stereo not drawn) [compound 704], the Emax on M4 muscarinic receptor (setting [5]) and on M1 muscarinic receptor (setting [5]) was 25 to 100% each time. Besides, the “M4 Activity” value at M4 muscarinic receptor (setting [6]) is “xxx (activity was measured to be less than 2.0 μM)”. In addition, on M1 muscarinic receptor (setting [7]), the “M1 Activity” value is “xxx (activity was measured to be less than 2.0 μM)”.

Consider `CC(=O)N1CC2(CCN(C3CCN(C(=O)OC4CCC4)CC3)CC2)c2cc(F)ccc21` [compound 140], for which the “M4 Activity” value at M4 muscarinic receptor (setting [1]) is reported as “xxx (activity was measured to be less than 0.1 μM)”. For the same compound, the Emax at M4 muscarinic receptor (setting [2]) and at M1 muscarinic receptor (setting [4]) was more than 85% throughout. Also, the “M1 Activity” value on M1 muscarinic receptor (setting [3]) is on record as “xxx (activity was measured to be less than 0.1 μM)”.
